From ChEMBL document CHEMBL3044552, “Synthesis and biological evaluation of 1-(3-chloro-2-oxo-4-phenylazetidin-1-yl)-3-(2-oxo-2-(10H-phenothiazin-10-yl)ethyl)urea derivatives” (Med Chem Res, 2013)
Converted amounts (≈) assume the structure as drawn. The source made the active and inactive calls. The rule behind the calls is not given here.

Experiments:
[1] = test system: Trichophyton rubrum; assay: Antifungal activity against Trichophyton rubrum after 18 hr by serial dilution method; format: functional
[2] = test system: Aspergillus niger; assay: Antifungal activity against Aspergillus niger after 18 hr by serial dilution method; format: functional
[3] = test system: Monascus purpureus; assay: Antifungal activity against Monascus purpureus after 18 hr by serial dilution method; format: functional
[4] = test system: Candida albicans; assay: Antifungal activity against Candida albicans after 18 hr by serial dilution method; format: functional
[5] = test system: Staphylococcus epidermidis; assay: Antibacterial activity against Staphylococcus albus after 18 hr by serial dilution method; format: functional
[6] = test system: Bacillus subtilis; assay: Antibacterial activity against Bacillus subtilis after 18 hr by serial dilution method; format: functional
[7] = test system: Staphylococcus aureus; assay: Antibacterial activity against Staphylococcus aureus after 18 hr by serial dilution method; format: functional
[8] = test system: Micrococcus luteus; assay: Antibacterial activity against Micrococcus luteus after 18 hr by serial dilution method; format: functional
[9] = test system: Vibrio cholerae; assay: Antibacterial activity against Vibrio cholerae after 18 hr by serial dilution method; format: functional
[10] = test system: Salmonella paratyphi; assay: Antibacterial activity against Salmonella enterica subsp. enterica serovar Paratyphi A after 18 hr by serial dilution method; format: functional
[11] = test system: Escherichia coli; assay: Antibacterial activity against Escherichia coli after 18 hr by serial dilution method; format: functional
[12] = test system: Pseudomonas aeruginosa; assay: Antibacterial activity against Pseudomonas aeruginosa after 18 hr by serial dilution method; format: functional
[13] = test system: Trichophyton rubrum; assay: Antifungal activity against Trichophyton rubrum after 24 hr by disk diffusion method; format: functional
[14] = test system: Aspergillus niger; assay: Antifungal activity against Aspergillus niger after 24 hr by disc diffusion method; format: functional
[15] = test system: Monascus purpureus; assay: Antifungal activity against Monascus purpureus after 24 hr by disk diffusion method; format: functional
[16] = test system: Candida albicans; assay: Antifungal activity against Candida albicans after 24 hr by disk diffusion method; format: functional
[17] = test system: Staphylococcus epidermidis; assay: Antibacterial activity against Staphylococcus albus after 24 hr by disk diffusion method; format: functional
[18] = test system: Bacillus subtilis; assay: Antibacterial activity against Bacillus subtilis after 24 hr by disk diffusion method; format: functional
[19] = test system: Staphylococcus aureus; assay: Antibacterial activity against Staphylococcus aureus after 24 hr by disk diffusion method; format: functional
[20] = test system: Micrococcus luteus; assay: Antibacterial activity against Micrococcus luteus after 24 hr by disk diffusion method; format: functional
[21] = test system: HeLa; assay: Cytotoxicity against Homo sapiens (human) HeLa cells after 48 hr by MTT assay; format: functional, cell-based
[22] = test system: HeLa; assay: Growth inhibition of Homo sapiens (human) HeLa cells at 100 uM after 48 hr by MTT assay; format: functional; details: read-out: GI
[23] = test system: HeLa; assay: Growth inhibition of Homo sapiens (human) HeLa cells at 50 uM after 48 hr by MTT assay; format: functional; details: read-out: GI
[24] = test system: HeLa; assay: Growth inhibition of Homo sapiens (human) HeLa cells at 25 uM after 48 hr by MTT assay; format: functional; details: read-out: GI
[25] = test system: HeLa; assay: Growth inhibition of Homo sapiens (human) HeLa cells at 12.5 uM after 48 hr by MTT assay; format: functional; details: read-out: GI
[26] = test system: HeLa; assay: Growth inhibition of Homo sapiens (human) HeLa cells at 6.25 uM after 48 hr by MTT assay; format: functional; details: read-out: GI
[27] = test system: Pseudomonas aeruginosa; assay: Antibacterial activity against Pseudomonas aeruginosa after 24 hr by disc diffusion method; format: functional
[28] = test system: Escherichia coli; assay: Antibacterial activity against Escherichia coli after 24 hr by disc diffusion method; format: functional
[29] = test system: Salmonella paratyphi; assay: Antibacterial activity against Salmonella enterica subsp. enterica serovar Paratyphi A after 24 hr by disk diffusion method; format: functional
[30] = test system: Vibrio cholerae; assay: Antibacterial activity against Vibrio cholerae after 24 hr by disk diffusion method; format: functional
[31] = Antioxidant activity assessed as reduction of ferric ion after 30 min by spectrophotometric analysis; format: functional
[32] = test system: Radical scavenging activity; assay: Antioxidant activity assessed as DPPH radical scavenging activity after 30 min by spectrophotometric analysis; format: functional
[33] = test system: Mycobacterium tuberculosis; assay: Growth inhibition of Mycobacterium tuberculosis H37Rv at 1 ug/ml after 7 days by resazurin microplate assay; format: functional, organism-based
[34] = test system: Mycobacterium tuberculosis; assay: Growth inhibition of Mycobacterium tuberculosis H37Rv at 100 ug/ml after 7 days by resazurin microplate assay; format: functional, organism-based
[35] = test system: Mycobacterium tuberculosis; assay: Growth inhibition of Mycobacterium tuberculosis H37Rv at 10 ug/ml after 7 days by resazurin microplate assay; format: functional, organism-based

SMILES	MIC [1] [µg/mL]	MIC [2] [µg/mL]	MIC [3] [µg/mL]	MIC [4] [µg/mL]	MIC [5] [µg/mL]	MIC [6] [µg/mL]	MIC [7] [µg/mL]	MIC [8] [µg/mL]	MIC [9] [µg/mL]	MIC [10] [µg/mL]	MIC [11] [µg/mL]	MIC [12] [µg/mL]	diameter of the inhibition zone (DIZ) [13] [mm]	diameter of the inhibition zone (DIZ) [14] [mm]	diameter of the inhibition zone (DIZ) [15] [mm]	diameter of the inhibition zone (DIZ) [16] [mm]	diameter of the inhibition zone (DIZ) [17] [mm]	diameter of the inhibition zone (DIZ) [18] [mm]	diameter of the inhibition zone (DIZ) [19] [mm]	diameter of the inhibition zone (DIZ) [20] [mm]	other results
O=C(NCC(=O)N1c2ccccc2Sc2ccccc21)NN1C(=O)C(Cl)C1c1ccc(O)cc1 (stereo not drawn)	250 (≈ 505 µM)	62.5 (≈ 126 µM)	500 (≈ 1010 µM)	62.5 (≈ 126 µM)	125 (≈ 253 µM)	125 (≈ 253 µM)	125 (≈ 253 µM)	62.5 (≈ 126 µM)	125 (≈ 253 µM)	62.5 (≈ 126 µM)	250 (≈ 505 µM)	62.5 (≈ 126 µM)	8	8	10	13	13	10	9	12	IC50 [21]: 84.1 µM; inhibition of growth at 100 µM [22]: 53%; inhibition of growth at 50 µM [23]: 37.4%; inhibition of growth at 25 µM [24]: 19.1%; inhibition of growth at 12.5 µM [25]: 5.04%; inhibition of growth at 6.25 µM [26]: 0.123%; diameter of the inhibition zone (DIZ) [27]: 18 mm; diameter of the inhibition zone (DIZ) [28]: 5 mm; diameter of the inhibition zone (DIZ) [29]: 12 mm; diameter of the inhibition zone (DIZ) [30]: 9 mm
O=C(NCC(=O)N1c2ccccc2Sc2ccccc21)NN1C(=O)C(Cl)C1c1ccc(Cl)cc1 (stereo not drawn)	250 (≈ 487 µM)	125 (≈ 243 µM)	62.5 (≈ 122 µM)	125 (≈ 243 µM)	250 (≈ 487 µM)	125 (≈ 243 µM)	62.5 (≈ 122 µM)	250 (≈ 487 µM)	62.5 (≈ 122 µM)	250 (≈ 487 µM)	62.5 (≈ 122 µM)	250 (≈ 487 µM)	6	12	12	7	5	7	4	5	IC50 [21]: 111 µM; inhibition of growth at 100 µM [22]: 44.3%; inhibition of growth at 50 µM [23]: 33.6%; inhibition of growth at 25 µM [24]: 15.9%; inhibition of growth at 12.5 µM [25]: 5.9%; inhibition of growth at 6.25 µM [26]: 0.123%; Activity [31]: Active; EC50 [32]: 56 µg/mL (≈ 109 µM); diameter of the inhibition zone (DIZ) [27]: 5 mm; diameter of the inhibition zone (DIZ) [28]: 19 mm; diameter of the inhibition zone (DIZ) [29]: 5 mm; diameter of the inhibition zone (DIZ) [30]: 18 mm
O=C(NCC(=O)N1c2ccccc2Sc2ccccc21)NN1C(=O)C(Cl)C1c1ccc([N+](=O)[O-])cc1 (stereo not drawn)	250 (≈ 477 µM)	500 (≈ 954 µM)	62.5 (≈ 119 µM)	62.5 (≈ 119 µM)	250 (≈ 477 µM)	250 (≈ 477 µM)	250 (≈ 477 µM)	250 (≈ 477 µM)	250 (≈ 477 µM)	125 (≈ 239 µM)	62.5 (≈ 119 µM)	500 (≈ 954 µM)	5	9	13	14	4	5	4	3	growth inhibition (GI) [33]: inactive; IC50 [21]: 18.3 µM; inhibition of growth at 100 µM [22]: 89.5%; inhibition of growth at 50 µM [23]: 73.2%; inhibition of growth at 25 µM [24]: 56.5%; inhibition of growth at 12.5 µM [25]: 41.8%; inhibition of growth at 6.25 µM [26]: 23.6%; growth inhibition (GI) [34]: Active; growth inhibition (GI) [35]: inactive; diameter of the inhibition zone (DIZ) [28]: 15 mm; diameter of the inhibition zone (DIZ) [29]: 7 mm; diameter of the inhibition zone (DIZ) [30]: 5 mm
CN(C)c1ccc(C2C(Cl)C(=O)N2NC(=O)NCC(=O)N2c3ccccc3Sc3ccccc32)cc1 (stereo not drawn)	250 (≈ 479 µM)	125 (≈ 239 µM)	250 (≈ 479 µM)	250 (≈ 479 µM)	125 (≈ 239 µM)	125 (≈ 239 µM)	125 (≈ 239 µM)	250 (≈ 479 µM)	125 (≈ 239 µM)	250 (≈ 479 µM)	250 (≈ 479 µM)	62.5 (≈ 120 µM)	7	8	7	7	8	8	8	5	growth inhibition (GI) [33]: inactive; Activity [31]: Active; EC50 [32]: 55 µg/mL (≈ 105 µM); growth inhibition (GI) [34]: Active; growth inhibition (GI) [35]: inactive; diameter of the inhibition zone (DIZ) [27]: 12 mm; diameter of the inhibition zone (DIZ) [28]: 7 mm; diameter of the inhibition zone (DIZ) [29]: 6 mm; diameter of the inhibition zone (DIZ) [30]: 8 mm
